Experiments:
[1] = target: T1, CYP2C8 (Homo sapiens, UniProt P10632); assay: Cytochrome P450 inhibition, CYP2C8; assay type: in vitro ADME
T1 sequence (P10632 1-490): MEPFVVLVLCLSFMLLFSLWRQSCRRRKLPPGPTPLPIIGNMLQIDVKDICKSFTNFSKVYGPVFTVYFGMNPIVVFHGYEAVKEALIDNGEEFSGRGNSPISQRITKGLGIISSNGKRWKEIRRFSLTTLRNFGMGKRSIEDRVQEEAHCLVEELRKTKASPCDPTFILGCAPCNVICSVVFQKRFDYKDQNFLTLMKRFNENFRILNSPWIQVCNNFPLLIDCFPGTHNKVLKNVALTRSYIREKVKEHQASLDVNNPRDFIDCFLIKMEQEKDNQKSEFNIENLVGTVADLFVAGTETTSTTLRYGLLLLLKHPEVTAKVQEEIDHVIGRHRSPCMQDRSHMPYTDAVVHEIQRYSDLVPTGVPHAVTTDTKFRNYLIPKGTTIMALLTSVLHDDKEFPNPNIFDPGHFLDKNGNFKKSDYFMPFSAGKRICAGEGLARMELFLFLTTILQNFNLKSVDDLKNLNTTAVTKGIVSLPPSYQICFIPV
Description: (§1) The compounds of Example 1 and also Example 187 of PCT/US09/036,501 were tested for their activity at the cytochrome P450 enzymes CYP3A4 and CYP2C8. Utilizing procedures similar to that described by Walasky et al. and the references therein, the following human IC50 values were determined (Walsky, R. L.; Obach, R. S. Drug Metab. Dispos. 2004, 32, 647-660.)

[2] = target: T2, PHD2 (Homo sapiens, UniProt Q9GZT9); assay: PHD2 / HIF-1α peptide time resolved fluorescence assay; assay type: biochemical
T2 construct: FLAG-tagged full length PHD2 expressed in and purified from baculovirus-infected Sf9 cells; FLAG; made in house; host or cells: baculovirus-infected Sf9 cells
Description: To each well of a 96-well plate was added 1 μL of test compound in DMSO and 20 μl of assay buffer (50 mM Tris pH 7.4/0.01% Tween-20/0.1 mg/ml bovine serum albumin/10 μM ferrous sulfate/1 mM sodium ascorbate/20 μg/ml catalase) containing 0.15 μg/ml FLAG-tagged full length PHD2 expressed in and purified from baculovirus-infected Sf9 cells. After a 30 min preincubation at room temperature, the enzymatic reactions were initiated by the addition of 4 μL of substrates (final concentrations of 0.2 μM 2-oxoglutarate and 0.5 μM HIF-1α peptide biotinyl-DLDLEMLAPYIPMDDDFQL). After 2 hr at room temperature, the reactions were terminated and signals were developed by the addition of a 25 μL quench/detection mix to a final concentration of 1 mM ortho-phenanthroline, 0.1 mM EDTA, 0.5 nM anti-(His)6 LANCE reagent (Perkin-Elmer Life Sciences), 100 nM AF647-labeled streptavidin (Invitrogen), and 2 μg/ml (His)-6-VIAL complex (S. Tan(2001) Protein Expr. Purif. 21, 224-234). The ratio of time resolved fluorescence signals at 665 and 620 nm was determined, and percent inhibition was calculated relative to an uninhibited control sample run in parallel.

[3] = Pharmacokinetics after intravenous dosing in dogs (plasma concentration by LC-MS/MS); assay type: in vivo; settings: beagle, dog, dogs (beagles), 0.5 mg/kg intravenous
Description: The pharmacokinetics and cytochrome P450 activity of Example 1 (E-1) were evaluated, and compared to that of Example 187 disclosed in International PCT application PCT/US09/036,501, filed Mar. 9, 2009. Compounds were formulated in a 1:1 solution (by volume) of PEG200: water and dosed at 0.5 mg/kg of body weight. The formulation was dosed intravenously in 2 dogs (beagles), and blood was drawn at the following time points (hours) 0.08, 0.25, 0.5, 1, 2, 4, 6, 8, 24. The plasma concentrations shown in the table below were determined by protein precipitation followed by liquid chromatography—tandem mass spectrometry analysis.

[4] = target: CYP3A4 (Homo sapiens, UniProt P08684); assay: Cytochrome P450 inhibition, CYP3A4; assay type: in vitro ADME
Description: as §1

T2 sequence (Q9GZT9 whole entry): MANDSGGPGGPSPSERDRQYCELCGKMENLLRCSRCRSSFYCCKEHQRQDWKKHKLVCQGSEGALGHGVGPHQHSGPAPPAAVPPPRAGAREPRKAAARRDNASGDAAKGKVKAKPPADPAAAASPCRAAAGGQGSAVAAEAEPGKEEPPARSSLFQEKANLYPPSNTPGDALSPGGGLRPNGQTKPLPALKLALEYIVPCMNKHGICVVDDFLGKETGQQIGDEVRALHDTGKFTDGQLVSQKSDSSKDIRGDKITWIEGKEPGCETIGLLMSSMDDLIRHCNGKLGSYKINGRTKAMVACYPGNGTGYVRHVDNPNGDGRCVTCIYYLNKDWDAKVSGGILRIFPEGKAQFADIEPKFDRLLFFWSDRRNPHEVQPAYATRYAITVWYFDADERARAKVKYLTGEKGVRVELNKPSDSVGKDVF
Chain of CYP3A4 (P08684 whole entry): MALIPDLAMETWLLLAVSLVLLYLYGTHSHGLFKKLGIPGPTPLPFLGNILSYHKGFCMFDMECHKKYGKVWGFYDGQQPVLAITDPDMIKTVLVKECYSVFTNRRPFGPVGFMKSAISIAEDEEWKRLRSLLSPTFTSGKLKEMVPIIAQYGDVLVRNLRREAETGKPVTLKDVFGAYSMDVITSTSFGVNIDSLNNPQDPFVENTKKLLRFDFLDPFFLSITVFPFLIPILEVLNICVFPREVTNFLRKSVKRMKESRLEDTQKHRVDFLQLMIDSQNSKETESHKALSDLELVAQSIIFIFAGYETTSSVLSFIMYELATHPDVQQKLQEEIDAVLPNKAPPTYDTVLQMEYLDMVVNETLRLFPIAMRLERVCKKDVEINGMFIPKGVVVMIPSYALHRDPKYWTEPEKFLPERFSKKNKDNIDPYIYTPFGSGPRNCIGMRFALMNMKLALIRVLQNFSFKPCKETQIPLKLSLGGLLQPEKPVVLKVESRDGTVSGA

IC50 [1]: 49.5 µM
IC50, inhibition of the interaction between PHD2 and a HIF peptide ([2]; general range statement, units within the value): 0.0001 to 10 µM
IC50 ([2]; read-out: PHD2 binding activity expressed as IC50): ≤ 0.01 µM
MRT [3]: 6.57 h
clearance [3]: 2.49 mL/min/kg
concentration at 0.08 h ([3]; 0.08 hours): 1500 nM
concentration at 0.25 h ([3]; 0.25 hours): 1150 nM
concentration at 0.5 h ([3]; 0.50 hours): 1110 nM
concentration at 1 h ([3]; 1.00 hours): 944 nM
concentration at 2 h ([3]; 2.00 hours): 754 nM
concentration at 4 h ([3]; 4.00 hours): 581 nM
concentration at 6 h ([3]; 6.00 hours): 374 nM
concentration at 8 h ([3]; 8.00 hours): 475 nM
concentration at 24 h ([3]; 24.00 hours): 23 nM
half-life ([3]; read-out: T ½ (converted)): 4.09 h
IC50 [4]: > 50 µM
Structure (SMILES): COc1ccc(-c2ccc(C(C)(C)NC(=O)c3cnc(-c4cccnn4)nc3O)cn2)cc1 [Example 1, 4-Hydroxy-N-{1-[6-(4-methoxyphenyl)pyridin-3-yl]-1-methylethyl}-2-pyridazin-3-ylpyrimidine-5-carboxamide]
